Laboratory results from patent US8318928B2, “Fused imidazole carboxamides as TRPV3 modulators” (Glenmark Pharmaceuticals, S.A., priority 2008, dated 2012).

Molecular target: T1, Human TRPV3 expressing CHO cells (Homo sapiens, UniProt Q8NET8)
T1 construct: expressed in transfected cells; host or cells: CHO cells, kept under G-418 selection
T1 sequence (Q8NET8 1-790): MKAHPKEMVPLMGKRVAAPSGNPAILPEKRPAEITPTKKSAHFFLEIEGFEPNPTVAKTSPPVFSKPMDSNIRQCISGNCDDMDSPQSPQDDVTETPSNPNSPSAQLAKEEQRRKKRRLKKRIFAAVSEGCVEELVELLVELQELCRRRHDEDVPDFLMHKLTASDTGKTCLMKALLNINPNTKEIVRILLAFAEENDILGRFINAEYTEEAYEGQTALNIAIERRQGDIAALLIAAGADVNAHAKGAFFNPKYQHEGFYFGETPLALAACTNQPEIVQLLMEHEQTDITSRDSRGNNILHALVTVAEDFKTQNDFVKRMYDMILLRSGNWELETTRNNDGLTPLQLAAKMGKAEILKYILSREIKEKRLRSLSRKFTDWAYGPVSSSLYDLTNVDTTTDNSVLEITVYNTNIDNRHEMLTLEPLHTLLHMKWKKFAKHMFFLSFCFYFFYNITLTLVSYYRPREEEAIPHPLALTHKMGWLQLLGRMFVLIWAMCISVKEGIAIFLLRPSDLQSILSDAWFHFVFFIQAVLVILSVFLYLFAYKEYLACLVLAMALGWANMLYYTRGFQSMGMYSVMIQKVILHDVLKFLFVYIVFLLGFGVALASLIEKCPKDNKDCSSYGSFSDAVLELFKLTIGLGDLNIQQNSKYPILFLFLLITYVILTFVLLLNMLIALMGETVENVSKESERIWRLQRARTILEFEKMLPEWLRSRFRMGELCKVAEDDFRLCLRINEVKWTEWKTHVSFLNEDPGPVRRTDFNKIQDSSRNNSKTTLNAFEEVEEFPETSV
Assay: 45Calcium uptake assay: inhibition of 2-APB induced cellular uptake of radioactive calcium
Type: cell-based
Settings: 2-APB 500 μM; for IC50: class symbols; for inhibition at 1 µM / Percentage inhibition at 1.0 μM: compound at 1.0 μM; for inhibition at 1 µM: read-out: Percentage inhibition at 1.0 μM; for inhibition at 10 µM / Percentage inhibition at 10.0 μM: compound at 10.0 μM; for inhibition at 10 µM: read-out: Percentage inhibition at 10.0 μM
Source text: Certain illustrative compounds within the scope of the present invention are screened for TRPV3 activity according to a modified procedure described in (a) Tóth, A. et al. Life Sciences 2003, 73, 487-498. (b) McNamara C, R. et al. Proc. Natl. Acad. Sci. U.S.A., 2007, 104, 13525-13530. The screening of the compounds may be carried out by other methods and procedures known to persons skilled in the art.
Screening for TRPV3 Antagonist Using the ^45Calcium Uptake Assay
The inhibition of TRPV3 receptor activation was followed as inhibition of 2-aminoethxydiphenylborate (2-APB) induced cellular uptake of radioactive calcium. Test compounds were dissolved in dimethyl sulfoxide (DMSO) to prepare 20 mM stock solution and then diluted using plain medium with DMEM/F-12 containing 1.8 mM CaCl2 to get desired concentration. Final concentration of DMSO in the reaction was 0.5% (v/v). Human TRPV3 expressing CHO cells were grown in DMEM/F-12 medium with 10% FBS, 1% penicillin-streptomycin solution, 400 μg/mL of G-418. Cells were seeded 24 h prior to the assay in 96 well plates so as to get ˜50,000 cells per well on the day of experiment. Cells were treated with test compounds for 10 minutes followed by addition of 2-APB at a final concentration of 500 μM and 5 μCi/mL ^45Ca^+2 for 4 minutes. Cells were washed and lysed using buffer containing 1% Triton X-100, 0.1% deoxycholate and 0.1% SDS. Radioactivity in the lysate was measured in Packardt Top count after addition of liquid scintillant. Concentration response curves were plotted as a % of maximal response obtained in the absence of test antagonist. IC50 value was calculated from concentration response curve by nonlinear regression analysis using GraphPad PRISM software.
Percentage inhibition at concentrations of 1.0 μM and 10.0 μM are given in the table along with IC50 (nM) details for selected examples.

CC(C)(C)COc1c(/C=C/c2nc3sccn3c2C(=O)Nc2nc(C(C)(C)C)cs2)cccc1OC(F)F [Example 21, 6-[(E)-2-(3-(Difluoromethoxy)-2-(2,2-dimethylpropoxy)-phenyl)vinyl]-N-(4-tert-butyl-1,3-thiazol-2-yl)imidazo[2,1-b][1,3]thiazole-5-carboxamide]
IC50: 100 to 250 nM | inhibition at 1 µM: 80.8% | inhibition at 10 µM: 89.8%

2-{(E)-2-[3-(Difluoromethoxy)-2-(2,2-dimethylpropoxy)phenyl]vinyl}-N-[4-(trifluoro-methyl)-1,3-thiazol-2-yl]imidazo[1,2-c]pyridine-3-carboxamide [Example 38]
Percentage inhibition at 1.0 μM: 87.67% | Percentage inhibition at 10.0 μM: 97.11%

O=C(Nc1nc(C(F)(F)F)cs1)c1c(/C=C/c2cccc(OC(F)F)c2OCC2CCC2)nc2sccn12 [Example 36, 6-{(E)-2-[2-(Cyclobutylmethoxy)-3-(difluoromethoxy)phenyl]vinyl}-N-[4-(trifluoro-methyl)-1,3-thiazol-2-yl]imidazo[2,1-b][1,3]thiazole-5-carboxamide]
IC50: 100 to 250 nM | inhibition at 1 µM: 93.7% | inhibition at 10 µM: 97.7%

CC(C)(C)COc1c(/C=C/c2nc3sccn3c2C(=O)Nc2nc3c(s2)CCC3)cccc1OC(F)F [Example 28, 6-{(E)-2-[2-(2,2-Dimethylpropoxy)-3-(difluoromethoxy)phenyl]vinyl}-N-(5,6-dihydro-4H-cyclopenta[d][1,3]thiazol-2-yl)imidazo[2,1-b][1,3]thiazole-5-carboxamide]
inhibition at 1 µM: 9.45% | inhibition at 10 µM: 15.6%

COc1cccc(/C=C/c2nc3sccn3c2C(=O)Nc2nc(C)cs2)c1OCC(C)(C)C [Example 10, 6-{(E)-2-[2-(2,2-Dimethylpropoxy)-3-methoxyphenyl]vinyl}-N-(4-methyl-1,3-thiazol-2-yl)imidazo[2,1-b][1,3]thiazole-5-carboxamide]
IC50: 250 to 1000 nM | inhibition at 1 µM: 69.3% | inhibition at 10 µM: 80.6%

CC(C)(C)COc1c(/C=C/c2nc3sccn3c2C(=O)Nc2nc(C3CCC3)cs2)cccc1OC(F)F [Example 22, 6-{(E)-2-[2-(2,2-Dimethylpropoxy)-3-(difluoromethoxy)phenyl]vinyl}-N-(4-cyclobutyl-1,3-thiazol-2-yl)imidazo[2,1-b][1,3]thiazole-5-carboxamide]
inhibition at 1 µM: 47.9% | inhibition at 10 µM: 86.5%

CC(C)CCOc1c(/C=C/c2nc3ccccn3c2C(=O)Nc2nc(C(F)(F)F)cs2)cccc1OC(F)F [Example 41, 2-{(E)-2-[3-(Difluoromethoxy)-2-(3-methylbutoxy)phenyl]vinyl}-N-[4-(trifluoromethyl)-1,3-thiazol-2-yl]imidazo[1,2-c]pyridine-3-carboxamide]
Percentage inhibition at 1.0 μM: 52.99% | Percentage inhibition at 10.0 μM: 84.65%

COc1cccc(/C=C/c2nc3sccn3c2C(=O)Nc2nnc(C(F)(F)F)s2)c1OCC(C)(C)C [Example 12, 6-{(E)-2-[2-(2,2-Dimethylpropoxy)-3-methoxyphenyl]vinyl}-N-[5-(trifluoromethyl)-1,3,4-thiadiazol-2-yl]imidazo[2,1-b][1,3]thiazole-5-carboxamide]
inhibition at 1 µM: 13.3% | inhibition at 10 µM: 82.8%

CCN(C(=O)c1c(/C=C/c2cccc(OC)c2OCC(C)(C)C)nc2sccn12)c1nc(C(F)(F)F)cs1 [Example 11, N-Ethyl-6-{(E)-2-[2-(2,2-dimethylpropoxy)-3-methoxyphenyl]vinyl}-N-[4-(trifluoro-methyl)-1,3-thiazol-2-yl]imidazo[2,1-b][1,3]thiazole-5-carboxamide]
IC50: < 100 nM | inhibition at 1 µM: 75.1% | inhibition at 10 µM: 84.8%

COc1cccc(/C=C/c2nc3sccn3c2C(=O)N2CCN(c3ccc(C#N)cn3)CC2)c1OCC1CC1 [Example 5]
inhibition at 1 µM: 5.32% | inhibition at 10 µM: 38.2%

COc1cccc(/C=C/c2nc3sccn3c2C(=O)Nc2ccc(OC(F)(F)F)cc2)c1OCC1CC1 [Example 1, 6-[(E)-2-(2-Cyclopropylmethoxy-3-methoxyphenyl)vinyl]-N-[4-(trifluoromethoxy)phenyl]imidazo[2,1-b][1,3]thiazole-5-carboxamide]
inhibition at 1 µM: 9.3% | inhibition at 10 µM: 38.6%

COc1cccc(/C=C/c2nc3sccn3c2C(=O)Nc2nc(C(F)(F)F)cs2)c1OCC(C)(C)C [Example 7, 6-{(E)-2-[2-(2,2-Dimethylpropoxy)-3-methoxyphenyl]vinyl}-N-[4-(trifluoromethyl)-1,3-thiazol-2-yl]imidazo[2,1-b][1,3]thiazole-5-carboxamide]
IC50: < 100 nM | inhibition at 1 µM: 95.5% | inhibition at 10 µM: 99.5%

CC(C)(C)COc1c(/C=C/c2nc3ccccn3c2C(=O)Nc2nc(C3CC3)cs2)cccc1OC(F)F [Example 39, 2-{(E)-2-[2-(2,2-Dimethylpropoxy)-3-(difluoromethoxy)phenyl]vinyl}-N-(4-cyclo-propyl-1,3-thiazol-2-yl)imidazo[1,2-a]pyridine-3-carboxamide]
inhibition at 1 µM: 76.1% | inhibition at 10 µM: 58.7%

CC(C)(C)COc1c(/C=C/c2nc3sccn3c2C(=O)Nc2nc3ccc(F)cc3s2)cccc1OC(F)F [Example 29, 6-{(E)-2-[3-(Difluoromethoxy)-2-(2,2-dimethylpropoxy)phenyl]vinyl}-N-(6-fluoro-1,3-benzothiazol-2-yl)imidazo[2,1-b][1,3]thiazole-5-carboxamide]
inhibition at 1 µM: 24% | inhibition at 10 µM: 15.3%

O=C(Nc1nc(C2CC2)cs1)c1c(/C=C/c2cccc(OC(F)F)c2OCC2CCC2)nc2sccn12 [Example 35, 6-{(E)-2-[2-(Cyclobutylmethoxy)-3-(difluoromethoxy)phenyl]vinyl}-N-(4-cyclopropyl-1,3-thiazol-2-yl)imidazo[2,1-b][1,3]thiazole-5-carboxamide]
IC50: < 100 nM | inhibition at 1 µM: 84.3% | inhibition at 10 µM: 96.5%

CC(C)(C)COc1c(/C=C/c2nc3sccn3c2C(=O)Nc2cccc(C(F)(F)F)c2)cccc1OC(F)F [Example 24, 6-{(E)-2-[3-(Difluoromethoxy)-2-(2,2-dimethylpropoxy)phenyl]vinyl}-N-(3-trifluoromethylphenyl)imidazo[2,1-b][1,3]thiazole-5-carboxamide]
inhibition at 1 µM: 22.5% | inhibition at 10 µM: 37.3%

CC(C)c1csc(NC(=O)c2c(/C=C/c3cccc(OC(F)F)c3OCC(C)(C)C)nc3sccn23)n1 [Example 20, 6-{(E)-2-[2-(2,2-Dimethylpropoxy)-3-(difluoromethoxy)phenyl]vinyl}-N-(4-isopropyl-1,3-thiazol-2-yl)imidazo[2,1-b][1,3]thiazole-5-carboxamide]
inhibition at 1 µM: 53.3% | inhibition at 10 µM: 81.7%

CCCCCOc1c(/C=C/c2nc3sccn3c2C(=O)Nc2nc(C(F)(F)F)cs2)cccc1OC(F)F [Example 33]
inhibition at 1 µM: 51.8% | inhibition at 10 µM: 93.1%

CC(C)(C)COc1c(/C=C/c2nc3sccn3c2C(=O)Nc2ccc(C#N)cn2)cccc1OC(F)F [Example 26, N-(5-Cyanopyridin-2-yl)-6-{(E)-2-[3-(difluoromethoxy)-2-(2,2-dimethylpropoxy)phenyl]vinyl}imidazo[2,1-b][1,3]thiazole-5-carboxamide]
inhibition at 1 µM: 70.1% | inhibition at 10 µM: 77.5%

COc1cccc(/C=C/c2nc3sccn3c2C(=O)Nc2nc(C(F)(F)F)cs2)c1OCC1CC1 [Example 2, 6-[(E)-2-(2-Cyclopropylmethoxy-3-methoxyphenyl)vinyl]-N-[4-(trifluoromethyl)-1,3-thiazol-2-yl]imidazo[2,1-b][1,3]thiazole-5-carboxamide]
IC50: 250 to 1000 nM | inhibition at 1 µM: 73.2% | inhibition at 10 µM: 97.6%
